The values below come from US6999905B2, “Method for extracting significant signal, recording medium and program” (priority 2002, dated 2006).

Molecules are shown by their SMILES.

Common to all, as to assay type: cell-based
Test [1] deals with neuron prepared from Lymnaea stagnails.
For test [2] the test system is unchanged. Description: Electrical signal of a neuron under glutamate, average of standard deviations (Example 1). Particulars: 0, 0.1, 0.3, 1, 3, 10, 30, or 100 μM glutamate; standard deviation of 100 milliseconds; FIG. 6. An excerpt: FIG. 2 is a schematic diagram showing a configuration of an apparatus and steps used in a signal extracting method according to Example 1 of the present invention. The apparatus comprises a measurement section 101 for continuously measuring action potential generated from a neuron; a computer 100 incorporating a hard disk storing a program for executing a standard deviation calculation step 102 for calculating a standard deviation of measured data every predetermined time, an average calculation step 105 for calculating an average of standard deviation values output every predetermined time, and an activity calculation step 108 for calculating an ion channel activity from an average output from the average calculation step 105; and a data displaying section 110, such as CRT, for displaying the ion channel activity.
The apparatus was used to measure an electrical signal of a neuron which was actually prepared from Lymnaea stagnails where 0, 0.1, 0.3, 1, 3, 10, 30, or 100 μM glutamate was applied to the neuron. The resultant measured data spanning […] was divided into pieces of subdata spanning 100 milliseconds, for each of which a standard deviation was in turn calculated. The average of the standard deviations was plotted in FIG. 6. […]

For test [3] the test system is unchanged. Nature of the test: Extracellular recording of a neuron before and after glutamate, normal distribution of standard deviations (Example 2). Conditions: after application of 50 μM glutamate, before application 0.488. The source says: FIG. 3 is a schematic diagram showing a configuration of an apparatus and steps used in a signal extracting method according to Example 2 of the present invention. The apparatus comprises a measurement section 101 for continuously measuring action potential generated from a neuron; a computer 100 incorporating a hard disk storing a program for executing a standard deviation calculation step 102 for calculating a standard deviation of measured data every predetermined time, a normal distribution approximation step 103 for dividing a standard deviation group consisting of a plurality of resultant standard deviations into a plurality of classes having a predetermined width of standard deviation as a unit, and plotting each standard deviation on a coordinate system in which X axis represents the class and Y axis represents the number of the standard deviations existing in each class, an average and half-width calculation step 106 for approximating the resultant graph to a normal distribution, and calculating the average and half-width of the resultant normal distribution, and an activity categorization step 109 for categorizing an ion channel activity based on the resultant average and half-width; and a data displaying section 110, such as CRT, for displaying the ion channel activity. […]

The test system is the same in test [4]. Description: Conventional intracellular recording of a neuron before and after glutamate, same signal processing (Example 2, FIG. 8). Conditions: after application of glutamate, before application 0.181. The source says: The curve to the left in FIG. 8 is a histogram of standard deviation values every 5 milliseconds before application of glutamate. The curve to the right in FIG. 8 is a histogram of standard deviation values every 5 milliseconds after the application of glutamate. As indicated in these figures, the averages and half-widths of graphs obtained by approximating the histograms, before and after the application of glutamate, to normal distributions are 0.181 and 0.041, respectively, before the application and 0.534 and 0.204, respectively, after the application. Comparing between the results of FIGS. 7 and 8, the result of the extracellular recording method is similar to that of the intracellular recording method.

Test [5] has as its system Smooth muscle cells derived from rat aorta vessels. Description: Potential changes of smooth muscle cells on a semiconductor substrate stimulated with norepinephrine (Example 7). Particulars: 10 μM norepinephrine; potential changes measured for 60 seconds; FIG. 15. As to the method:
Smooth muscle cells derived from rat aorta vessels were cultured on a specially treated semiconductor substrate.
The semiconductor substrate has 100 through holes, each of which has a diameter of 5 μm with the pitch of the through holes being 30 μm, in an area of 1 mm^2. A surface of the semiconductor substrate was coated with 0.01% (w/v) collagen type I solution (Sigma C8919) at a density of 10 μg/cm^2, which was in turn allowed to react at 37° C. for 30 minutes, followed by air drying. Smooth muscle cells derived from rat aorta vessels were cultured on the substrate cleansed with sterilized water. After three days of the culture, the following experiment was conducted.
When measuring ion channel activity, the vessel smooth muscle cells were suctioned by applying a predetermined pressure from the rear side of the semiconductor substrate so that the cells were made to contact the semiconductor substrate. […] In an experimental system, the smooth muscle cells were stimulated with 10 μM norepinephrine, and potential changes were measured for 60 seconds. […] Note that the collection of time-series data was started 10 milliseconds after the start of the experiment, so that measured data was not extracted for the time lag. Thereafter, standard deviations were calculated every 100 milliseconds from the time-series data, thereby clearly extracting ion channel activities due to the stimulant. […]

Take `NC1=N[C@H](O)[C@H]2[C@H]3O[C@]4(O)O[C@@H]([C@@H](O)[C@@]2(N1)[C@@H]4O)[C@]3(O)CO` [TTX, tetrodotoxin]: the “average of the distribution of standard deviation values every 5 milliseconds” value in test [1] is on record as “shifted along the horizontal axis toward the left further than the control”.
For `N[C@@H](CCC(=O)O)C(=O)O` [glutamate], the “average of the standard deviations (ion channel activity)” value in test [2] is “dependent on glutamate concentration”. The “average of normal distribution of standard deviation values every 5 milliseconds” value is recorded as 0.733 in test [3] and 0.534 in test [4]. For the same compound, the “average of the distribution of standard deviation values every 5 milliseconds” value in test [1] is on record as “shifted toward the right along the horizontal axis”.
`NC[C@H](O)c1ccc(O)c(O)c1` [norepinephrine]: the “average of the normal distribution of standard deviations every 100 milliseconds (ion channel activities)” value in test [5] is given as “clearly shifted toward higher class values than when no drug was applied”.
